Assay results as given in publication PMC8495455, “Discovery of a transdermally deliverable pentapeptide for activating AdipoR1 to promote hair growth” (EMBO Molecular Medicine, 2021).

Tests used:
Adipor1−/− mice = assay: Mouse hair cycle modulation, hair cycle score, Adipor1−/− mice; type: in vivo; settings: n = 5 mice/group, 35 days
From the text: To test whether the effect of P5 is mediated through AdipoR1 in vivo, we used Adipor1 ^−/− mice (Yamauchi et al, [2007]; Okada‐Iwabu et al, [2013]). […] Consistently, the anagen induction effects of P5 was abolished in the Adipor1 ^−/− mice (Fig 4I and J), in contrast to in WT mouse (Appendix Fig S2). […] Taken together, topical P5 treatment can accelerate hair growth through AdipoR1 in vivo.
For the hair cycle modulation experiment, Adipoq ^−/− (stock #008195; JAX) (Ma et al, [2002]), Adipor1 ^−/− (Yamauchi et al, [2007]; Okada‐Iwabu et al, [2013]), or C57BL/6 (KOATECH) female mice was used (Müller‐Röver et al, [2001]). They were housed (up to four animals per cage; 23 ± 2°C, 8:00–20:00, 12 h/12 h light/dark cycle). Mice were fed a standard chow diet and provided food and water ad libitum. Mice were randomly allocated and shaved dorsally at 7.5 weeks of age. […] The mouse hair growth score (a value from 0 to 100 based on the skin pigmentation and hair shaft density) was monitored and documented at designated days with the experimenters being blind to the conditions, following a previous study (Chai et al, [2019]). […] On day 35, we obtained dorsal cutaneous tissue for histological analysis: anagen induction scores (calculated using an assigned arbitrary score; telogen = 1, anagen I–VI = 2–7) (Müller‐Röver et al, [2001]). […]

C57BL/6 (WT) mice = assay: Mouse hair cycle modulation, hair cycle score, WT mice; type: in vivo; settings: for Gross morphology of dorsum: topical
From the text: First, we topically applied P5 and minoxidil as a positive control (Messenger & Rundegren, [2004]) on wildtype (WT) mouse. […] Overall, the hair cycle score was higher in the P5‐treated mice than vehicle‐treated mice (Fig 4B). […] Collectively, P5 induces anagen hair cycle in vivo.
For the hair cycle modulation experiment, Adipoq ^−/− (stock #008195; JAX) (Ma et al, [2002]), Adipor1 ^−/− (Yamauchi et al, [2007]; Okada‐Iwabu et al, [2013]), or C57BL/6 (KOATECH) female mice was used (Müller‐Röver et al, [2001]). They were housed (up to four animals per cage; 23 ± 2°C, 8:00–20:00, 12 h/12 h light/dark cycle). Mice were fed a standard chow diet and provided food and water ad libitum. Mice were randomly allocated and shaved dorsally at 7.5 weeks of age. Only mice in telogen were included for the further experiments (Müller‐Röver et al, [2001]). From 8 weeks of age, the shaved dorsal area was treated with vehicle control (ethanol and polyethylene glycol, 30% and 70% v/v), P5 (0.1 mM), or minoxidil (3%) every day. The mouse hair growth score (a value from 0 to 100 based on the skin pigmentation and hair shaft density) was monitored and documented at designated days with the experimenters being blind to the conditions, following a previous study (Chai et al, [2019]). A higher score corresponds to a transition from telogen to anagen. On day 35, we obtained dorsal cutaneous tissue for histological analysis: anagen induction scores (calculated using an assigned arbitrary score; telogen = 1, anagen I–VI = 2–7) (Müller‐Röver et al, [2001]).

human DP cells = assay: MTT cell proliferation assay, DP cells; type: cell-based; settings: 48 h
From the text: To design transdermally deliverable AdipoR1 agonist, we further assessed the 15‐mer sequence by cutting it into several 5‐mer peptides (Fig EV1B) (Bos & Meinardi, [2000]). Based on the fact that AdipoRs are expressed in HF cells, including dermal papilla (DP) and outer root sheath (ORS) cells (Won et al, [2012]), we performed a cell proliferation assay on human DP and ORS cells to see if there is any potential biological effect of the 5‐mer peptides on the human HF cells.
Dermal papilla cells and ORS cells were seeded into a 96‐well plate (1.0 × 10^4 cells/well) with serum‐free culture media for 24 h and then treated with each candidate 5‐mer peptide (in 0.5 μg/ml or 5 μg/ml) for 48 h. After the addition of MTT solution (20 μl, 5 mg/ml) to each well, the cells were incubated for 4 h at 37°C in the dark room and then incubated with dimethyl sulfoxide (DMSO, 200 μl) for 20 min at room temperature. The samples were assessed by measuring the absorbance at 570 nm with an absorbance microplate reader (VersaMax).

[1] = system: AMPK phosphorylation in DP cells; assay: Western blot p-AMPK, DP cells; type: cell-based, human; settings: P5 0 - 50 μM, APN 2.5 μg/ml
From the text: Following the confirmation of the molecular interaction between AdipoR1 and P5, we evaluated the activation of the intracellular signaling pathway by P5. We investigated whether APN treatment on ORS and DP cells could activate AMPK or ERK signaling pathways, which are previously known to be downstream effectors of AdipoR1 (Mao et al, [2006]; Deepa & Dong, [2009]; Shibata et al, [2012]). […] Next, for determination of whether both P5 and APN mediates the phosphorylation of AMPK through AdipoR1 in ORS and DP cells, the cells were transfected with AdipoR1 siRNA (Appendix Fig S1). […] Collectively, P5 activates AMPK signaling pathway through AdipoR1 in ORS and DP cells in vitro.
Human ORS and DP cells or skin tissue were lysed (RIPA lysis buffer; #20‐188; Merck Millipore). The obtained protein was then separated by 8% SDS–PAGE and transferred to a polyvinylidene fluoride membrane (Amersham). The protein transferred membranes were incubated overnight with the specific antibodies. […] Antibody‐antigen complexes detected by enhanced chemiluminescent substrate (Thermo Fisher) were captured and quantified by Amersham imager 680 systems (GE Healthcare).

Substance: GLYYF [P5, GST-fused (GST-P5) in pulldown assays]
- Anagen induction effects / hair cycle scores vs vehicle (Adipor1−/− mice): abolished
- Hair cycle score vs vehicle (C57BL/6 (WT) mice; n = 16 mice/group, Two-way ANOVA): higher
- Gross morphology of dorsum (C57BL/6 (WT) mice; day 14): obvious pigmentation and hair
- Gross morphology of dorsum (C57BL/6 (WT) mice; day 35): manifested a black hair coat
- Relative cell proliferation, DP (human DP cells; 0.5μg/ml, control = 1, replicate 1): 1.11
- Relative cell proliferation, DP (human DP cells; 0.5μg/ml, control = 1, replicate 2): 1.117
- Relative cell proliferation, DP (human DP cells; 0.5μg/ml, control = 1, replicate 3): 1.106
- Relative cell proliferation, DP (human DP cells; 5μg/ml, control = 1, replicate 1): 1.094
- Relative cell proliferation, DP (human DP cells; 5μg/ml, control = 1, replicate 2): 1.179
- Relative cell proliferation, DP (human DP cells; 5μg/ml, control = 1, replicate 3): 1.068
- Relative cell proliferation, DP (human DP cells; 5μg/ml, control = 1, replicate 4): 1.07
- Relative cell proliferation, DP (human DP cells; 5μg/ml, control = 1, replicate 5): 1.01
- Cell proliferative effect, DP cells (human DP cells; 0.5 or 5 μg/ml, Paired t-test vs control): significant cell proliferative effects
- Phosphorylation of AMPK, DP cells [1]: concentration‐dependent phosphorylation of AMPK
